Measured values taken from US10562912B2 (C&C Research Laboratories, priority 2013, dated 2020).

Legend:
Type in all cases: cell-based
STAT3 = target: T1, STAT3 (Homo sapiens, UniProt P40763); test: STAT3 reporter gene assay (luciferase), LNCaP stable cell line (pSTAT3-TA-luc), IL-6 stimulation
T1 construct: plasmid pSTAT3-TA-luc), which contains a stably operating STAT3 promoter; endogenous in cells
How it was run: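 LNCaP cells stably carrying pSTAT3-TA-luc, in RPMI1640 with 3% DCC-FBS, were treated with compound and then stimulated with 10 ng/mL IL-6 for 24–48 h at 37 °C. Luciferase activity was measured in lysates. A parallel plate measured viability by CellTiter-Glo, with stimulated 0.1% DMSO wells as the positive control.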

HEL92.1.7 = test: Cell growth inhibition assay, blood cancer cell line HEL92.1.7; conditions: Homo sapiens, HEL 92.1.7, HEL92.1.7 blood cancer cell line
How it was run: (§1)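 Cells were seeded at 3,000/well (HCT116, DU-145) or 5,000/well (SW626 and the others) and exposed to serial compound dilutions for 72 to 96 h at 37 °C under 5% CO2. Viability was read as CellTiter-Glo luminescence against 0.1% DMSO and cell-free wells.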

LNCaP = test: Cell growth inhibition assay, prostate cancer cell line LNCaP (medium with 10 ng/mL IL-6); conditions: Homo sapiens, medium supplemented with 10 ng/mL of IL-6, 10,000 cells/well
DU-145 = test: Cell growth inhibition assay, prostate cancer cell line DU-145; conditions: Homo sapiens, DU-145 prostate cancer cell line
How it was run: as §1

T1 sequence (P40763 whole entry): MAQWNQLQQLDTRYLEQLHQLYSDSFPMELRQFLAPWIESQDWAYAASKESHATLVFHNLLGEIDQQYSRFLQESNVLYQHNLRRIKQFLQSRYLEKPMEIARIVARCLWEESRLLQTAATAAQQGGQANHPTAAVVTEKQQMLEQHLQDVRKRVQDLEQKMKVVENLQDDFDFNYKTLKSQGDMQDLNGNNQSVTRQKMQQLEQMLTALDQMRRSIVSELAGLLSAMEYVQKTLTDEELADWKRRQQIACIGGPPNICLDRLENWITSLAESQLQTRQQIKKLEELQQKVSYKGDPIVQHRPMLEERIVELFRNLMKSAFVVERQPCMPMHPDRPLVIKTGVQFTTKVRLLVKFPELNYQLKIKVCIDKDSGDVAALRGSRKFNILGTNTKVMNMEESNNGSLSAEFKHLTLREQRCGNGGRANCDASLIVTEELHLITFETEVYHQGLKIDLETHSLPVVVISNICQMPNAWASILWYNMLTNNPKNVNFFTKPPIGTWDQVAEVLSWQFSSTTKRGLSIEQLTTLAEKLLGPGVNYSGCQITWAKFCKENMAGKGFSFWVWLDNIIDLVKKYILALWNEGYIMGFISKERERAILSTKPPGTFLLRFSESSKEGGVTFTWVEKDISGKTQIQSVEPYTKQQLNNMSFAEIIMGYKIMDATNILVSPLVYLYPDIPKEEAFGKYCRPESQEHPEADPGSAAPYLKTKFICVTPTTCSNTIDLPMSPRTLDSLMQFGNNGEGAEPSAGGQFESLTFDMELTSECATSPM

| SMILES | IC50 (STAT3) [µM] | IC50 (HEL92.1.7) [µM] | IC50 (LNCaP) [µM] | IC50 (DU-145) [µM] |
| --- | --- | --- | --- | --- |
| CC(C)Oc1cc(OC(F)(F)F)cc(C(C)(C)c2cc(Cl)cc(NC(=O)c3cc4cc(N(CCN5CCOCC5)S(C)(=O)=O)c(F)cc4s3)c2)c1 [Example 217, N-(3-chloro-5-(2-(3-isopropoxy-5-(trifluoromethoxy)phenyl)propan-2-yl)phenyl)-6-fluoro-5-(N-(2-morpholinoethyl)methylsulfonamido)benzo[b]thiophene-2-carboxamide] | 2.06 | > 1.1 | > 1.1 | 0.58 |
| CC(C)Oc1cc(OC(F)(F)F)cc(C(C)(C)c2cc(Cl)cc(N(CCN3CCOCC3)C(=O)c3cc4cc(N(CCN5CCOCC5)S(C)(=O)=O)c(F)cc4s3)c2)c1 [Example 218, N-(3-chloro-5-(2-(3-isopropoxy-5-(trifluoromethoxy)phenyl)propan-2-yl)phenyl)-6-fluoro-N-(2-morpholinoethyl)-5-(N-(2-morpholinoethyl)methylsulfonamido)benzo[b]thiophene-2-carboxamide] | > 10 | > 1.1 | 7.7 | > 1.1 |
| CC(C)Oc1cc(OC(F)(F)F)cc(C(C)(C)c2cc(Cl)cc(NC(=O)c3cc4cc(N(CCN(C)C)S(C)(=O)=O)c(F)cc4s3)c2)c1 [Example 219, N-(3-chloro-5-(2-(3-isopropoxy-5-(trifluoromethoxy)phenyl)propan-2-yl)phenyl)-5-(N-(2-(dimethylamino)ethyl)methylsulfonamido)-6-fluorobenzo[b]thiophene-2-carboxamide] | 1.19 | 0.9 | 0.19 | 0.18 |
| CS(=O)(=O)Nc1cc2cc(C(=O)Nc3cc(Cl)cc(-c4ccc(F)cc4F)c3)sc2cc1F [Example 322, N-(5-chloro-2′,4′-difluoro-[1,1′-biphenyl]-3-yl)-6-fluoro-5-(methylsulfonamido)benzo[b]thiophene-2-carboxamide] | 0.028 | 0.049 | 0.021 | 0.011 |
| CS(=O)(=O)Nc1ccc2sc(C(=O)Nc3cc(Cl)cc(-c4ccc(F)cc4F)c3)cc2c1 [Example 323, N-(5-chloro-2′,4′-difluoro-[1,1′-biphenyl]-3-yl)-5-(methylsulfonamido)benzo[b]thiophene-2-carboxamide] | 0.11 | 0.097 | 0.063 | 0.035 |
| COc1cc(OC(F)(F)F)cc(-c2cc(Cl)cc(NC(=O)c3cc4cc(NS(C)(=O)=O)ccc4s3)c2)c1 [Example 324, N-(5-chloro-3′-methoxy-5′-(trifluoromethoxy)-[1,1′-biphenyl]-3-yl)-5-(methylsulfonamido)benzo[b]thiophene-2-carboxamide] | 0.53 | 0.83 | 0.48 | 0.4 |
| COc1cc(OC(F)(F)F)cc(-c2cc(Cl)cc(NC(=O)c3cc4cc(NS(C)(=O)=O)c(F)cc4s3)c2)c1 [Example 325, N-(5-chloro-3′-methoxy-5′-(trifluoromethoxy)-[1,1′-biphenyl]-3-yl)-6-fluoro-5-(methylsulfonamido)benzo[b]thiophene-2-carboxamide] | 0.24 | 0.39 | 0.16 | 0.15 |
| COc1cc(OC(F)(F)F)cc(-c2cc(Cl)cc(NC(=O)c3cc4cc(N(C)S(C)(=O)=O)c(F)cc4s3)c2)c1 [Example 326, N-(5-chloro-3′-methoxy-5′-(trifluoromethoxy)-[1,1′-biphenyl]-3-yl)-6-fluoro-5-(N-methylmethylsulfonamido)benzo[b]thiophene-2-carboxamide] | 0.1 | 0.26 | 0.14 | 0.064 |
| O=C(Nc1cc(Cl)cc(-c2ccc(F)cc2F)c1)c1cc2cc(NS(=O)(=O)C3CCOC3)ccc2s1 (stereo not shown) [Example 327, N-(5-chloro-2′,4′-difluoro-[1,1′-biphenyl]-3-yl)-5-((tetrahydrofuran)-3-sulfonamido)benzo[b]thiophene-2-carboxamide] | 0.041 | 0.082 | 0.088 | 0.034 |
| COc1cc(OC(F)(F)F)cc(-c2cc(Cl)cc(NC(=O)c3cc4cc(NS(=O)(=O)C5CCOC5)ccc4s3)c2)c1 (stereo not shown) [Example 328, N-(5-chloro-3′-methoxy-5′-(trifluoromethoxy)-[1,1′-biphenyl]-3-yl)-5-((tetrahydrofuran)-3-sulfonamido)benzo[b]thiophene-2-carboxamide] | 0.34 | 0.5 | 0.34 | 0.39 |
| CN(c1cc2cc(C(=O)Nc3cc(Cl)cc(-c4ccc(F)cc4F)c3)sc2cc1F)S(C)(=O)=O [Example 329, N-(5-chloro-2′,4′-difluoro-[1,1′-biphenyl]-3-yl)-6-fluoro-5-(N-methylmethylsulfonamido)benzo[b]thiophene-2-carboxamide] | 0.01 | 0.009 | 0.008 | 0.004 |
| O=C(Nc1cc(Cl)cc(-c2ccc(F)cc2F)c1)c1cc2cc(NS(=O)(=O)C3CCOC3)c(F)cc2s1 (stereo not shown) [Example 330, N-(5-chloro-2′,4′-difluoro-[1,1′-biphenyl]-3-yl)-6-fluoro-5-((tetrahydrofuran)-3-sulfonamido)benzo[b]thiophene-2-carboxamide] | 0.029 | 0.057 | 0.011 | 0.005 |
| CS(=O)(=O)Nc1ccc2sc(C(=O)Nc3cc(Br)cc(S(=O)(=O)N4CCc5ccc(F)cc5C4)c3)cc2c1 [Example 418, N-(3-bromo-5-((7-fluoro-3,4-dihydroisoquinolin-2(1H)-yl)sulfonyl)phenyl)-5-(methylsulfonamido)benzo[b]thiophene-2-carboxamide] | 0.84 | 2.2 | 1.6 | 0.98 |
| CS(=O)(=O)Nc1ccc2sc(C(=O)Nc3cc(Br)cc(S(=O)(=O)N4CCc5c(F)cc(F)cc5C4)c3)cc2c1 [Example 419, N-(3-bromo-5-((5,7-difluoro-3,4-dihydroisoquinolin-2(1H)-yl)sulfonyl)phenyl)-5-(methylsulfonamido)benzo[b]thiophene-2-carboxamide] | 0.67 | 1.8 | 1 | 0.65 |
| CS(=O)(=O)Nc1ccc2sc(C(=O)Nc3cc(Br)cc(S(=O)(=O)N4CCC(F)(F)CC4)c3)cc2c1 [Example 420, N-(3-bromo-5-((4,4-difluoropiperidin-1-yl)sulfonyl)phenyl)-5-(methylsulfonamido)benzo[b]thiophene-2-carboxamide] | 0.82 | 2.4 | 1.7 | 0.95 |
| CC(C)Oc1cc(OC(F)(F)F)cc(C2(c3cc(Cl)cc(NC(=O)c4cc5cc(N(C)S(C)(=O)=O)c(F)cc5s4)c3)CC2)c1 [Example 430, N-(3-chloro-5-(1-(3-isopropoxy-5-(trifluoromethoxy)phenyl)cyclopropyl)phenyl)-6-fluoro-5-(N-methylmethylsulfonamido)benzo[b]thiophene-2-carboxamide] | 0.012 | 0.014 | 0.006 | 0.006 |
| CC(C)Oc1cc(OC(F)(F)F)cc(C2(c3cc(Cl)cc(NC(=O)c4cc5cc(NS(C)(=O)=O)ccc5s4)c3)CC2)c1 [Example 431, N-(3-chloro-5-(1-(3-isopropoxy-5-(trifluoromethoxy)phenyl)cyclopropyl)phenyl)-5-(methylsulfonamido)benzo[b]thiophene-2-carboxamide] | 0.053 | 0.007 | 0.034 | 0.038 |
| CS(=O)(=O)Nc1ccc2sc(C(=O)Nc3cc(Cl)cc(Nc4ccc(F)cc4F)c3)cc2c1 [Example 438, N-(3-chloro-5-((2,4-difluorophenyl)amino)phenyl)-5-(methylsulfonamido)benzo[b]thiophene-2-carboxamide] | 0.2 | 0.48 | 0.42 | 0.16 |
| CN(c1cc(Cl)cc(NC(=O)c2cc3cc(NS(C)(=O)=O)ccc3s2)c1)c1ccc(F)cc1F [Example 439, N-(3-chloro-5-((2,4-difluorophenyl)(methyl)amino)phenyl)-5-(methylsulfonamido)benzo[b]thiophene-2-carboxamide] | 0.053 | 0.64 | 0.15 | 0.089 |
| CN(c1ccc(Cl)cc1)c1cc(Cl)cc(NC(=O)c2cc3cc(NS(C)(=O)=O)ccc3s2)c1 [Example 440, N-(3-chloro-5-((4-chlorophenyl)(methyl)amino)phenyl)-5-(methylsulfonamido)benzo[b]thiophene-2-carboxamide] | 0.036 | 0.085 | 0.021 | 0.012 |
| CS(=O)(=O)Nc1ccc2sc(C(=O)Nc3cc(Cl)cc(Oc4ccc(F)cc4F)c3)cc2c1 [Example 444, N-(3-chloro-5-(2,4-difluorophenoxy)phenyl)-5-(methylsulfonamido)benzo[b]thiophene-2-carboxamide] | 0.083 | 0.65 | 0.24 | 0.13 |
| CS(=O)(=O)Nc1ccc2sc(C(=O)Nc3cc(Cl)cc(Oc4ccc(Cl)cc4)c3)cc2c1 [Example 445, N-(3-chloro-5-(4-chlorophenoxy)phenyl)-5-(methylsulfonamido)benzo[b]thiophene-2-carboxamide] | 0.066 | 0.15 | 0.074 | 0.055 |
